Source: patent US20110256206A1, “IMPLANTABLE DEVICES FOR TREATING HIV” (priority 2008, published 2011)

Tests used:
[1] = Solubility of TMC278 and of TMC278 recrystallized from DMSO; assay type: physicochemical
Procedure: In addition to increasing the water uptake into the bulk of the polymer, excipients can be used to decrease the crystallinity of the TMC278 and thereby lower the energy necessary to solubilize the drug. […] The recrystallized TMC278 was prepared by dissolving 10 grams of TMC278 in 800 ml of DMSO under gentle stirring for 2 hours. One hundred milliliters of the solution was subsequently poured into a flat bottomed aluminum mold. Solution was lyophilized using a Dora-Stop MTS system. Lyophilized TMC278 was collected. Two grams of PLGA 50/50 were fed into DACA compounder that was pre-set to 120° C. with screws rotating at 100 rpm. After the polymer was fed into the DACA and melted, two grams of lyophilized TMC278 were fed into the compounder and mixed at the set conditions for an additional 5 minutes. The extruded strands were collected, cooled in ambient conditions and placed in plastic bags and stored in a nitrogen box for analysis.
The lowered crystallinity of the TMC278 when re-crystallized from DMSO is also reflected in the change of the appearance of the TMC278 crystals following the recrystallization procedure. The morphology of the TMC278 particles in the drug powder appear compact and needle-shaped, but after the recrystallization process the particles are highly porous (FIG. 3). […]

[2] = clinical studies; less frequent than with marketed NNRTIs; cited from earlier work
[3] = Effect of gamma irradiation process parameters on recovery of TMC278 from polymer specimens; assay type: physicochemical
Procedure: For those samples that were irradiated under a nitrogen atmosphere, the following procedure was followed. Polymer implants were prepared containing 60% TMC278 and 40% PLGA 50/50 as described above. Samples were placed in Nalgene™ cuvettes inside the antechamber of a nitrogen glovebox. An automatic vacuum cycle was executed consisting of three 8 minute vacuum purges each followed by nitrogen refilling. The samples were transferred to the main chamber and allowed to equilibrate overnight. The cuvettes were placed in foil pouches and the pouches were sealed before removal from the nitrogen glovebox. Samples were removed from glovebox and irradiated as directed.
Those samples that were irradiated under ambient conditions were placed in vials and aluminum pouches, which were heat sealed under ambient conditions and were stored at 0° C. until they reached that temperature. The samples that were processed at 0° C. were stored at 0° C. Subsequently, the samples were removed from freezer environment and immediately placed in the irradiator. […]
From the data it can be seen that exposure level of irradiation is the most significant factor in achieving complete recovery of TMC278 from irradiated samples. […] In addition, the samples that were exposed to 15 kgy irradiation under nitrogen environment were analyzed for impurities stemming from TMC278 degradation.

| SMILES | Solubility in DMSO ([1]; DMSO) | Side effects [2] | Impurities stemming from TMC278 degradation (mass spectrometry) ([3]; 15 kgy irradiation under nitrogen environment) | TMC278 recovered (average) ([3]; irradiated at 25 kgy (under nitrogen)) [%] | Solubility relative to unrecrystallized TMC278 ([1]; recrystallized (lyophilized from DMSO) versus unrecrystallized TMC278) |
| --- | --- | --- | --- | --- | --- |
| Cc1cc(C=CC#N)cc(C)c1Nc1ccnc(Nc2ccc(C#N)cc2)n1 [TMC278, 4-[[4-[[4-(2-cyanoethenyl)-2,6-dimethylphenyl}-amino]-2-pyrimidinyl]-amino]-benzonitrile] | highly soluble | nausea, dizziness, abnormal dreams, dyspepsia, asthenia, skin rashes, somnolence and vertigo | no new impurities formed by the irradiation | 81 |  |
| Cc1cc(/C=C/C#N)cc(C)c1Nc1ccnc(Nc2ccc(C#N)cc2)n1 [recrystallized TMC278] |  |  |  |  | more than 250 × |
